pIC50: −log10 of the molar value.
Columns and labels:
[1] = target: T1, recombinant, purified human Caspase-3 (Homo sapiens, UniProt P42574); assay: Enzyme assay, caspase inhibition (fluorogenic substrate cleavage); assay type: biochemical; conditions: second order rate constant of enzyme inactivation; substrate Acetyl-Asp-Glu-Val-Asp-amino-4-methylcoumarin
T1 sequence (P42574 29-175 limits assumed): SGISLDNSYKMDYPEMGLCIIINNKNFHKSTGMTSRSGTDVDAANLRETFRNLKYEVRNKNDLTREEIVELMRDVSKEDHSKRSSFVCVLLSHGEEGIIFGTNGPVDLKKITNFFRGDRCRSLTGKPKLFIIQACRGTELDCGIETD
T1 sequence (P42574 176-277 limits assumed): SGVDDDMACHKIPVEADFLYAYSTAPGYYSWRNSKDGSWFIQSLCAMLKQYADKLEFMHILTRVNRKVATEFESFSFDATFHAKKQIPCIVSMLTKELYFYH
Description: (§1) The assays for caspase inhibition are based on the cleavage of a fluorogenic substrate by recombinant, purified human Caspases −1, −3, −7 or −8. The assays are run in essentially the same way as those reported by Garcia-Calvo et al., J. Biol. Chem. 273, 32608-32613 (1998), using a substrate specific for each enzyme. The substrate for Caspase-1 is Acetyl-Tyr-Val-Ala-Asp-amino-4-methylcoumarin and the substrate for Caspases −3, −7 and −8 is Acetyl-Asp-Glu-Val-Asp-amino-4-methylcoumarin both as disclosed in Garcia-Calvo et al., J. Biol. Chem. 273, 32608-32613 (1998).
(§2) The observed rate of enzyme inactivation at a particular inhibitor concentration, kobs, is computed by direct fits of the data to the equation derived by Thornberry et al., Biochemistry, 33, […] (1994) using a nonlinear least-squares analysis computer program (PRISM 2.0; GraphPad software). To obtain the second order rate constant, kinact, kobs values are plotted against their respective inhibitor concentrations and kinact values are subsequently calculated by computerized linear regression.
(§3) Compounds with kinact(M^−1s^−1)>500000 are listed as “A”. Compounds with kinact(M^−1s^−1) between 100000 and 500000 are listed as “B”. Compounds with kinact(M^−1s^−1)<100000 are listed as “C”.

[2] = target: recombinant, purified human Caspase-8 (Homo sapiens, UniProt Q14790); assay: as above; assay type: biochemical; conditions: second order rate constant of enzyme inactivation; substrate Acetyl-Asp-Glu-Val-Asp-amino-4-methylcoumarin
Sequence of recombinant, purified human Caspase-8 (Q14790 217-374 limits assumed): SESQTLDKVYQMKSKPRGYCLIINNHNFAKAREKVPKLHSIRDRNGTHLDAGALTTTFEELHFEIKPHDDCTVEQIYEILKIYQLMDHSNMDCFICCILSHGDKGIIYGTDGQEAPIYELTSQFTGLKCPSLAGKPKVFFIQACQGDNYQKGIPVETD
Sequence of recombinant, purified human Caspase-8 (Q14790 385-479 limits assumed): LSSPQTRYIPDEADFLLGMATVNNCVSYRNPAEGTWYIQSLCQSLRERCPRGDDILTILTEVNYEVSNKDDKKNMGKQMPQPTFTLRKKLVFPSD
Description: as §1, §2, §3

[3] = target: T2, recombinant, purified human Caspase-1 (Homo sapiens, UniProt P29466); assay: as above; assay type: biochemical; conditions: second order rate constant of enzyme inactivation; substrate Acetyl-Tyr-Val-Ala-Asp-amino-4-methylcoumarin
T2 sequence (P29466 120-297 limits assumed): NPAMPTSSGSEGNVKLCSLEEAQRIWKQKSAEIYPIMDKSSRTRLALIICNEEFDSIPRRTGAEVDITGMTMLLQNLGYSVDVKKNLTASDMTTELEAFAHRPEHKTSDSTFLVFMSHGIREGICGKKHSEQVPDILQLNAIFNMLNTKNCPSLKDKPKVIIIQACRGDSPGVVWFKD
T2 sequence (P29466 317-404 limits assumed): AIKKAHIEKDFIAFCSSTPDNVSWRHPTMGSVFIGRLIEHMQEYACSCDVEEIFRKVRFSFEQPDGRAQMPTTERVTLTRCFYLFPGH
Description: as §1, §2, §3

[4] = tested on: IL-1β secretion from human whole blood; assay: Inhibition of IL-1β secretion from whole blood; assay type: cell-based; conditions: human whole blood diluted 1:2 in PBS, LPS 5 ng/ml, 18 hours, ELISA
Procedure: Human blood is freshly drawn from healthy donors and diluted 1:2 in PBS. To 500 μl of diluted blood […] of prediluted test compound in RPMI medium and […] LPS (5 ng/ml final concentration on the plate) are added (LPS, Serotype 0111:B4, Sigma L3012). After stimulation for 18 hours supernatants are collected and assayed for IL-1β levels using the appropriate ELISA kit (R&D systems).
Compounds with an IC50>10 μM are listed as “A”. Compounds with an IC50 between 1 μM and 10 uM are listed as “B”. Compounds with an IC50<1 μM are listed as “C”.

rat cortical neurons = assay: Hypoxia-induced apoptosis of rat cortical neurons; assay type: cell-based, Wistar rat; conditions: Cortical neurone, oxygen-depleted serum-free medium, Cell Death Detection ELISA (DNA fragmentation)
Procedure: Cortical neurons are dissociated from Wistar rat embryos (E17) by a modification of the procedure of Rogers et al., Brain Res. Bulletin, 44:131 (1998). Briefly, cerebral cortices are isolated aseptically from 15-20 Wistar rat embryos. A cell suspension is prepared by mincing the cerebral cortices and digesting them with papain. Cells are washed with ovomucoid enzyme inhibitor and DNaseI and plated onto Poly-D lysine coated plates in high glucose DMEM containing 10% heat-inactivated fetal calf serum, L-glutamine, penicillin and streptomycin. The yield of neurons is […] per embryo and they are 80-90% viable as assessed by Trypan blue exclusion.
The neurons are cultured in complete medium at 37° C. in a normal atmosphere for 48 hours prior to the hypoxia experiments. For hypoxia, the normal cell medium is replaced by oxygen-depleted serum-free medium. Cells are incubated in an atmosphere of 95% N2/5% CO2 for various lengths of time. Compounds are dissolved in DMSO at 100 mM then diluted in medium and added to the culture from time=0. The level of apoptosis is measured using a Cell Death Detection ELISA kit (Roche) which detects DNA fragmentation. Plates are read at 405 nm. Controls included cells cultured in aerobic conditions in serum-containing medium (+serum) and cells cultured in aerobic conditions in serum-deprived medium (−serum).
Compounds with an IC50>0.5 μM are listed as “A”. Compounds with an IC50 between 0.1 μM and 0.5 uM are listed as “B”. Compounds with an IC50<0.1 μM are listed as “C”.

Compound | kinact Caspase-3 [1] | kinact Caspase-8 [2] | kinact Caspase-1 [3] | pIC50 [4] | pIC50 (rat cortical neurons)
CC[C@@H](C(=O)NC(CC(=O)O)C(=O)CF)n1cnc2ccc(Oc3ccccc3Cl)cc2c1=O (stereo partly drawn) [Compound 12, 3-[(2S)-2-[6-(2-Chloro-phenoxy)-4-oxo-4H-quinazolin-3-yl)-butyrylamino]-5-fluoro-4-oxo-pentanoic acid] | A (Compounds with kinact(M^−1s^−1)>500000 are listed as “A”) | A (Compounds with kinact(M^−1s^−1)>500000 are listed as “A”) | A (Compounds with kinact(M^−1s^−1)>500000 are listed as “A”) | 5.00 to 6.00 | < 6.30
CC[C@@H](C(=O)NC(CC(=O)O)C(=O)CF)n1ccc2ccc(C(F)(F)F)cc2c1=O (mixture of isomers) [Compound 2, (S)-3-[2-(7-trifluoromethyl-1-oxo-1H-isoquinolin-2-yl)-butyrylamino]-5-fluoro-4-oxo-pentanoic acid] | A (Compounds with kinact(M^−1s^−1)>500000 are listed as “A”) | A (Compounds with kinact(M^−1s^−1)>500000 are listed as “A”) | A (Compounds with kinact(M^−1s^−1)>500000 are listed as “A”) | > 6.00 | < 6.30
CC[C@@H](C(=O)NC(CC(=O)O)C(=O)CF)n1ccc2ccc(-c3ccccc3)cc2c1=O (mixture of isomers) [Compound 21, (S)-3-[2-(7-phenyl-1-oxo-1H-isoquinolin-2-yl)-butyrylamino]-5-fluoro-4-oxo-pentanoic acid] | A (Compounds with kinact(M^−1s^−1)>500000 are listed as “A”) | A (Compounds with kinact(M^−1s^−1)>500000 are listed as “A”) | A (Compounds with kinact(M^−1s^−1)>500000 are listed as “A”) | 5.00 to 6.00 | 6.30 to 7.00
CC[C@@H](C(=O)N[C@@H](CC(=O)O)C(=O)COc1c(F)c(F)cc(F)c1F)n1ccc2ccc(Cl)cc2c1=O [Compound 10, (S,S)-3-[2-(7-chloro-1-oxo-1H-isoquinolin-2-yl)-butyrylamino]-4-oxo-5-(2,3,5,6-tetrafluoro-phenoxy)-pentanoic acid] | A (Compounds with kinact(M^−1s^−1)>500000 are listed as “A”) | C (Compounds with kinact(M^−1s^−1)<100000 are listed as “C”) | A (Compounds with kinact(M^−1s^−1)>500000 are listed as “A”) | 5.00 to 6.00 | > 7.00
CC(C)[C@@H](C(=O)NC(CC(=O)O)C(=O)CF)n1ccc2ccc(Cl)cc2c1=O (mixture of isomers) [Compound 18, (S)-3-[2-(7-chloro-1-oxo-1H-isoquinolin-2-yl)-3-methylbutyrylamino]-5-fluoro-4-oxo-pentanoic acid] | B (Compounds with kinact(M^−1s^−1) between 100000 and 500000 are listed as “B”) | C (Compounds with kinact(M^−1s^−1)<100000 are listed as “C”) | B (Compounds with kinact(M^−1s^−1) between 100000 and 500000 are listed as “B”) | 5.00 to 6.00 | 6.30 to 7.00
CC[C@@H](C(=O)NC(CC(=O)O)C(=O)CF)n1cnc2ccc(Oc3cccc(Cl)c3)cc2c1=O (stereo partly drawn) [Compound 13, 3-[(2S)-2-[6-(3-Chlorophenoxy)-4-oxo-4H-quinazolin-3-yl)-butyrylamino]-5-fluoro-4-oxo-pentanoic acid] | B (Compounds with kinact(M^−1s^−1) between 100000 and 500000 are listed as “B”) | A (Compounds with kinact(M^−1s^−1)>500000 are listed as “A”) | B (Compounds with kinact(M^−1s^−1) between 100000 and 500000 are listed as “B”) | 5.00 to 6.00 | 6.30 to 7.00
CC[C@@H](C(=O)NC(CC(=O)O)C(=O)CF)n1cnc2ccc(Sc3ccccc3)cc2c1=O (stereo partly drawn) [Compound 16, 5-Fluoro-4-oxo-3-[(2S)-2-(4-oxo-6-phenylsulfanyl-4H-quinazolin-3-yl)-butyrylamino]-pentanoic acid] | A (Compounds with kinact(M^−1s^−1)>500000 are listed as “A”) | A (Compounds with kinact(M^−1s^−1)>500000 are listed as “A”) | A (Compounds with kinact(M^−1s^−1)>500000 are listed as “A”) | 5.00 to 6.00 | 6.30 to 7.00
CC[C@@H](C(=O)N[C@@H](CC(=O)O)C(=O)COc1c(F)c(F)cc(F)c1F)n1ccc2cc(Cl)c(Cl)cc2c1=O [Compound 11, (S,S)-3-[2-(6,7-dichloro-1-oxo-1H-isoquinolin-2-yl)-butyrylamino]-4-oxo-5-(2,3,5,6-tetrafluoro-phenoxy)-pentanoic acid] | A (Compounds with kinact(M^−1s^−1)>500000 are listed as “A”) | C (Compounds with kinact(M^−1s^−1)<100000 are listed as “C”) | A (Compounds with kinact(M^−1s^−1)>500000 are listed as “A”) | < 5.00 | 6.30 to 7.00
CC[C@@H](C(=O)NC(CC(=O)O)C(=O)CF)n1cnc2ccc(Oc3cccc(F)c3)cc2c1=O (stereo partly drawn) [Compound 14, 5-Fluoro-3-{(2S)-2[6-(3-fluorophenoxy)-4-oxo-4H-quinazolin-3-yl]-butyrylamino}-4-oxo-pentanoic acid] | A (Compounds with kinact(M^−1s^−1)>500000 are listed as “A”) | B (Compounds with kinact(M^−1s^−1) between 100000 and 500000 are listed as “B”) | A (Compounds with kinact(M^−1s^−1)>500000 are listed as “A”) | > 6.00 | < 6.30
CC[C@@H](C(=O)NC(CC(=O)O)C(=O)CF)n1ccc2cc(C(F)(F)F)ccc2c1=O (stereo in doubt) [Compound 4, (S)-3-[2-(6-trifluoromethyl-1-oxo-1H-isoquinolin-2-yl)-butyrylamino]-5-fluoro-4-oxo-pentanoic acid] | B (Compounds with kinact(M^−1s^−1) between 100000 and 500000 are listed as “B”) | C (Compounds with kinact(M^−1s^−1)<100000 are listed as “C”) | B (Compounds with kinact(M^−1s^−1) between 100000 and 500000 are listed as “B”) | 5.00 to 6.00 | < 6.30
CC[C@@H](C(=O)N[C@@H](CC(=O)O)C(=O)COc1c(F)ccc(F)c1F)n1cnc2ccccc2c1=O [Compound 8, (S,S)-4-Oxo-3-[2-(4-oxo-4H-quinazolin-3-yl)-butyrylamino]-5-(2,5,6-trifluoro-phenoxy)-pentanoic acid] | B (Compounds with kinact(M^−1s^−1) between 100000 and 500000 are listed as “B”) | C (Compounds with kinact(M^−1s^−1)<100000 are listed as “C”) | B (Compounds with kinact(M^−1s^−1) between 100000 and 500000 are listed as “B”) | 5.00 to 6.00 | 6.30 to 7.00

— patent US8129381B2, “Caspase inhibitors and uses thereof” (Vertex Pharmaceuticals Incorporated, priority 2002, dated 2012)
